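All cell lines were grown in 96-well plates and treated with compound for 48 hours. The concentration for 50% growth inhibition is given as GI50.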 The source made the active and inactive calls. Cut-off read from the data, not from the text of the source: active = GI50 up to about 1.1 µM and inactive = higher.
Experiments:
Test in all cases: NCI anticancer screen, dose series, 48 h
HT-29 = system: HT-29
OVCAR-8 = system: OVCAR-8
NCI-H460 = system: NCI-H460
NCI-H522 = system: NCI-H522
SF-539 = system: SF-539
OVCAR-3 = system: OVCAR-3
SF-268 = system: SF-268
CAKI-1 = system: CAKI-1
HOP-92 = system: HOP-92
SW-620 = system: SW-620
MCF7 = system: MCF7
OVCAR-4 = system: OVCAR-4
K562 = system: K562
HOP-62 = system: HOP-62
HCC 2998 = system: HCC 2998
RPMI-8226 = system: RPMI-8226
Hs-578T = system: Hs-578T
SK-MEL-5 = system: SK-MEL-5
HL-60 = system: HL-60
NCI/ADR-RES = system: NCI/ADR-RES
T47D = system: T47D
UACC-257 = system: UACC-257
KM12 = system: KM12
SF-295 = system: SF-295
M14 = system: M14
RXF 393 = system: RXF 393
SK-MEL-28 = system: SK-MEL-28
SR = system: SR
Malme-3M = system: Malme-3M
UACC-62 = system: UACC-62
CCRF-CEM = system: CCRF-CEM
SK-MEL-2 = system: SK-MEL-2
A498 = system: A498
A549 = system: A549
EKVX = system: EKVX
MDA-MB-231 = system: MDA-MB-231
COLO 205 = system: COLO 205
PC-3 = system: PC-3
ACHN = system: ACHN
HCT-116 = system: HCT-116
TK-10 = system: TK-10
MDA-N = system: MDA-N
786-0 = system: 786-0
BT-549 = system: BT-549
MOLT-4 = system: MOLT-4
NCI-H23 = system: NCI-H23
OVCAR-5 = system: OVCAR-5
UO-31 = system: UO-31
IGROV-1 = system: IGROV-1
SNB-19 = system: SNB-19
HCT-15 = system: HCT-15
U-251 = system: U-251
NCI-H226 = system: NCI-H226
SN12C = system: SN12C
LOX IMVI = system: LOX IMVI
MDA-MB-435 = system: MDA-MB-435
SNB-75 = system: SNB-75
DU-145 = system: DU-145
SK-OV-3 = system: SK-OV-3
DLD-1 = system: DLD-1
KM-20L2 = system: KM-20L2

Measured: GI50

C=C1c2nc3ccccc3n2C=C(c2ccc(C)cc2)N1c1ccccc1
1.47 µM: HCT-15
active: NCI-H522 0.617 µM | K562 1.11 µM | KM12 1.1 µM | SR 0.445 µM | MDA-N 0.508 µM | MDA-MB-435 0.439 µM
inactive: HT-29 1.61 µM | OVCAR-8 5.14 µM | NCI-H460 2.88 µM | SF-539 2.44 µM | OVCAR-3 2.38 µM | SF-268 12.9 µM | CAKI-1 20.5 µM | HOP-92 27.1 µM | SW-620 1.67 µM | MCF7 2.47 µM | OVCAR-4 22.4 µM | HOP-62 6.49 µM | HCC 2998 2.26 µM | RPMI-8226 2.3 µM | Hs-578T 4.21 µM | SK-MEL-5 2.13 µM | HL-60 1.85 µM | NCI/ADR-RES 1.79 µM | T47D 3.24 µM | UACC-257 7.93 µM | SF-295 1.88 µM | M14 3.12 µM | RXF 393 3.36 µM | SK-MEL-28 5.58 µM | Malme-3M 2.62 µM | UACC-62 2.86 µM | CCRF-CEM 3.3 µM | SK-MEL-2 4.49 µM | A498 4.53 µM | A549 5.55 µM | EKVX 2.9 µM | MDA-MB-231 4.92 µM | COLO 205 3.04 µM | PC-3 2.75 µM | ACHN 15.1 µM | HCT-116 2.9 µM | TK-10 18.8 µM | 786-0 3.48 µM | BT-549 7.78 µM | MOLT-4 4.41 µM | NCI-H23 4.02 µM | OVCAR-5 20.7 µM | UO-31 9.62 µM | IGROV-1 3.33 µM | SNB-19 4.04 µM | U-251 3.27 µM | NCI-H226 2.43 µM | SN12C 6.22 µM | LOX IMVI 5.24 µM | SNB-75 2.08 µM | DU-145 3.9 µM | SK-OV-3 7.45 µM

COC(=O)/C(=N\NC(C)(C)C)C(C(=O)C(=O)Nc1cc(C)ccc1C)c1nc2ccccc2nc1O (configuration not stated)
inactive: HT-29 > 100 µM | OVCAR-8 > 100 µM | DLD-1 > 100 µM | SF-539 > 100 µM | KM-20L2 > 100 µM | CAKI-1 > 100 µM | HOP-92 > 100 µM | SW-620 > 100 µM | OVCAR-4 > 100 µM | K562 > 100 µM | HOP-62 > 100 µM | RPMI-8226 > 100 µM | SK-MEL-5 > 100 µM | HL-60 > 100 µM | UACC-257 > 100 µM | KM12 > 100 µM | SF-295 > 100 µM | SR > 100 µM | UACC-62 > 100 µM | CCRF-CEM > 100 µM | A498 > 100 µM | EKVX > 100 µM | COLO 205 > 100 µM | ACHN > 100 µM | TK-10 > 100 µM | MOLT-4 > 100 µM | NCI-H23 > 100 µM | OVCAR-5 > 100 µM | IGROV-1 > 100 µM | SNB-19 > 100 µM | NCI-H226 > 100 µM | SN12C > 100 µM | LOX IMVI > 100 µM | SNB-75 > 100 µM

COC(=O)/C=C1\CCCN1CCc1cc2c(cc1CC#N)OCO2
43.2 µM: HCT-15
inactive: HT-29 32.2 µM | OVCAR-8 > 100 µM | NCI-H460 36 µM | NCI-H522 > 100 µM | SF-539 46.8 µM | OVCAR-3 22.6 µM | SF-268 > 100 µM | CAKI-1 > 100 µM | HOP-92 > 100 µM | SW-620 49.7 µM | MCF7 32.9 µM | OVCAR-4 51.3 µM | K562 49.4 µM | HOP-62 52.4 µM | HCC 2998 28.1 µM | RPMI-8226 37 µM | Hs-578T > 100 µM | SK-MEL-5 25.6 µM | HL-60 40.7 µM | NCI/ADR-RES 69.8 µM | T47D 38.7 µM | UACC-257 59.4 µM | KM12 30.7 µM | SF-295 38.5 µM | M14 71.1 µM | RXF 393 31.7 µM | SK-MEL-28 84.1 µM | SR 16.5 µM | Malme-3M > 100 µM | UACC-62 31.4 µM | CCRF-CEM 42.5 µM | SK-MEL-2 38.4 µM | A498 32.7 µM | A549 > 100 µM | EKVX 58.9 µM | MDA-MB-231 47.9 µM | COLO 205 35.2 µM | PC-3 > 100 µM | ACHN > 100 µM | HCT-116 41.2 µM | TK-10 > 100 µM | MDA-N 18.3 µM | 786-0 52.7 µM | BT-549 52.6 µM | MOLT-4 34.4 µM | NCI-H23 47.2 µM | OVCAR-5 > 100 µM | UO-31 23.8 µM | IGROV-1 > 100 µM | SNB-19 60 µM | U-251 39.7 µM | NCI-H226 48.6 µM | SN12C 50 µM | LOX IMVI > 100 µM | MDA-MB-435 17.3 µM | SNB-75 25.1 µM | DU-145 80.4 µM | SK-OV-3 34.9 µM
